Measured values as given in patent publication US10421784B2, “Cell penetrating peptides for intracellular delivery of molecules” (AADIGEN, LLC, priority 2012, dated 2019).

Key:
[1] = Fluorescence titration, VEPEP-9/cargo binding; conditions: cargo SHM
Protocol: (§1) Fluorescence experiments were performed on a PTI spectrofluorimeter at 25° C. in a NaCl 154 mM buffer. Intrinsic Trp-fluorescence of VEPEP-9 was excited at 290 nm and emission spectrum was recorded between 310 and 400 nm, with a spectral band-pass of 2 and 8 nm for excitation and emission, respectively. FITC- or CY5-fluorescence of labelled-peptide or Oligonucleotide were excited at 492 nm and emission recorded between 500 and 580 nm. For VEPEP-9/peptide interaction, 0.5 μM of FITC-labelled peptide was titrated by increasing concentrations of VEPEP-9. For VEPEP-9/oligonucleotide interaction, 200 nM of FITC or CY5-labelled oligodeoxynucleotide (ODN) was titrated by increasing concentrations of VEPEP-9. All measurements were corrected for the dilution and curve fitting were performed by using Grafit software (Erithacus).
(§2) VEPEP-9 peptide form stable complexes with peptides and ODN. The binding of cargos to VEPEP-9 was monitored by fluorescence spectroscopy using the both intrinsic Trp group of VEPEP-9 (3 to 5 Trp-residues) and extrinsic fluorescently labelled cargoes (using Cy3, Cy5 or FITC). Curve fitting reveal that VEPEP-9 strongly binds the different cargoes with dissociation constant in the nanomolar range (Tables 1 and 2 and FIG. 2).
(§3) VEPEP-9 peptides form stable particles with different cargoes including peptide, siRNA, PNA and small aromatic (FIG. 2). The dissociation constant for peptide, siRNA, PNA and small hydrophobic molecule ranges between 10-100 nM, 5-50 nM, 5-50 nM and 0.02 to 0.2 μM, respectively, depending on the nature of the dyes and of the cargoes.

PNA (15 mer -PNA) = experiment: Fluorescence titration, VEPEP-9/cargo binding; conditions: cargo PNA (15 mer)
Protocol: as §1, §2, §3

Peptide (C4) = experiment: Fluorescence titration, VEPEP-9/cargo binding; conditions: cargo peptide (C4)
Protocol: as §1, §2, §3

siRNA = experiment: Fluorescence titration, VEPEP-9/cargo binding; conditions: cargo siRNA
Protocol: as §1, §2, §3

[2] = Fluorescence titration, VEPEP-9/SHM binding
Protocol: as §1
Binding of small molecule cargoes has been investigated in detailed depending on the nature of the SHM. Several hydrophobic molecules have been used (Daunomycin, Paclitaxel, doxorubicin, porphyrin), as well as charged molecules (nucleotide, nucleoside and fluorescent dyes).

CEM-SS [3] = experiment: Uptake of Cy-5 labelled small peptide (FACS); format: cell-based, Human
Protocol: (§4) Adherent HS68 fibroblasts, HeLa, PC3, MCF-7, SCK3-Her2, PBMC cell lines (from American Type Culture Collection (ATCC)) were cultured in Dulbecco's Modified Eagle's Medium supplemented with 2 mM glutamine, 1% antibiotics (streptomycin 10,000 μg/ml, penicillin, 10,000 IU/ml) and 10% (w/v) foetal calf serum (FCS), at 37° C. in a humidified atmosphere containing 5% CO2. Stock solutions of VEPEP-9/peptide particles were prepared by complexing 1 μM peptide with VEPEP-9 peptides at a molar ratio of 1/20 for 30 min at 37° C. Lower concentrations of VEPEP-9-carrier/peptide (from 500 nM to 1 μM) were obtained by serial dilution of the stock complexes in PBS, in order to preserve the same VEPEP-9-carrier/peptide ratio. Stock solutions of VEPEP-9/siRNA particles were prepared by complexing 100 nM siRNA with VEPEP-9 peptides at a molar ratio of 1/20 for 30 min at 37° C. Lower concentrations of VEPEP-9/siRNA (from 20 nM to 0.125 nM) were obtained by serial dilution of the stock complexes in PBS, in order to preserve the same VEPEP-9/siRNA ratio. 150,000 cells seeded in a 35 mm dish the day prior transfection, were grown to 60% confluence and overlaid with 200 μl of preformed complexes, incubated for 3-5 min, then 400 μl of DMEM were added. After 30 min. incubation at 37° C., 1 ml of fresh DMEM containing 16% foetal calf serum (FCS) was added in order to reach a final FCS concentration of 10%, without removing the overlay of VEPEP-9/cargo complexes. Cells were returned to the incubator for 24 hrs. For cdk2 derived peptides, cell proliferation was monitored after 24 and 48 hrs. For siRNA targeting Cyclin B1, Cyclin B1 mRNA level was determined 24 hrs following transduction, using Quantigen (Pommies Inc.). Data reported are an average of 3 or 4 distinct experiments.
(§5) VEPEP-9a, VEPEP-9c and VEPEP-9f have been used for the delivery of small peptides into different cell lines, including primary cell lines, stem cell lines and challenging cell lines. Cargoes uptake was monitored using fluorescence spectroscopy and FACS analysis. Fluorescently labelled peptides were visualized in the different cell lines using fluorescence microscopy or FACS sorting (Table 4). In most of the cell lines, the uptake of Cy-5 labelled peptide is more than 70% of the cells.

HS-68 [4] = experiment: Uptake of Cy-5 labelled small peptide (FACS); format: cell-based, Human
Protocol: as §4, §5

Hela [5] = experiment: Uptake of Cy-5 labelled small peptide (FACS); format: cell-based, Human
Protocol: as §4, §5

HepG2 [6] = experiment: Uptake of Cy-5 labelled small peptide (FACS); format: cell-based, Human
Protocol: as §4, §5

Jurkat [7] = experiment: Uptake of Cy-5 labelled small peptide (FACS); format: cell-based, Human
Protocol: as §4, §5

MCF7 [8] = experiment: Uptake of Cy-5 labelled small peptide (FACS); format: cell-based, Human
Protocol: as §4, §5

MT4 [9] = experiment: Uptake of Cy-5 labelled small peptide (FACS); format: cell-based, Human
Protocol: as §4, §5

U2OS [10] = experiment: Uptake of Cy-5 labelled small peptide (FACS); format: cell-based, Human
Protocol: as §4, §5

C2C12 [11] = experiment: Uptake of Cy-5 labelled small peptide (FACS); format: cell-based, Mouse
Protocol: as §4, with “Cells were returned to the incubator for 24 hrs.” left out, “Data reported are an average of 3 or 4 distinct experiments.” left out
(§6) VEPEP-9a, VEPEP-9c and VEPEP-9f have been used for the delivery of small peptides into different cell lines, including primary cell lines, stem cell lines and challenging cell lines. Cargoes uptake was monitored using fluorescence spectroscopy and FACS analysis. Fluorescently labelled peptides were visualized in the different cell lines using fluorescence microscopy or FACS sorting (Table 4). […]

MEF [12] = experiment: Uptake of Cy-5 labelled small peptide (FACS); format: cell-based, Mouse
Protocol: as §4, with “Cells were returned to the incubator for 24 hrs.” left out, “Data reported are an average of 3 or 4 distinct experiments.” left out
as §6

STEM [13] = experiment: Uptake of Cy-5 labelled small peptide (FACS); format: cell-based, Mouse
Protocol: as §4, with “Cells were returned to the incubator for 24 hrs.” left out, “Data reported are an average of 3 or 4 distinct experiments.” left out
as §6

CEM-SS [14] = experiment: Uptake of Cy-5 labelled PNA (FACS); format: cell-based, Human
Description: (§7) VEPEP-9 peptides have been used for the delivery of nucleic acid analogues (PNA and morpholino) into different cell lines, including primary cell lines and challenging cell lines. […] Uptake was monitored using fluorescence spectroscopy and following biological response (Cyclin B1 knockdown).
(§8) Fluorescently labelled PNA was visualized in the different cell lines using fluorescence microscopy or FACS sorting (Table 5). In most of the cell lines, the uptake of Cy-5 labelled PNA is more than 60% of the cells.

HS-68 [15] = experiment: Uptake of Cy-5 labelled PNA (FACS); format: cell-based, Human
Description: as §7, §8

Hela [16] = experiment: Uptake of Cy-5 labelled PNA (FACS); format: cell-based, Human
Description: as §7, §8

HepG2 [17] = experiment: Uptake of Cy-5 labelled PNA (FACS); format: cell-based, Human
Description: as §7, §8

Jurkat [18] = experiment: Uptake of Cy-5 labelled PNA (FACS); format: cell-based, Human
Description: as §7, §8

MCF7 [19] = experiment: Uptake of Cy-5 labelled PNA (FACS); format: cell-based, Human
Description: as §7, §8

MT4 [20] = experiment: Uptake of Cy-5 labelled PNA (FACS); format: cell-based, Human
Description: as §7, §8

U2OS [21] = experiment: Uptake of Cy-5 labelled PNA (FACS); format: cell-based, Human
Description: as §7, §8

C2C12 [22] = experiment: Uptake of Cy-5 labelled PNA (FACS); format: cell-based, Mouse
Description: as §7, §8

MEF [23] = experiment: Uptake of Cy-5 labelled PNA (FACS); format: cell-based, Mouse
Description: as §7, §8

STEM [24] = experiment: Uptake of Cy-5 labelled PNA (FACS); format: cell-based, Mouse
Description: as §7, §8

cultured cells = experiment: Cell cycle progression / cyclin B1 levels in cultured cells; format: cell-based; conditions: carrier alone (200 μM)

Substance: X1WWRWWAPWARSWWR [VEPEP-9f, X1 is beta-A or S]
- Binding [1]: Yes
- Kd [1]: 20 to 100 nM
- Binding (PNA (15 mer -PNA)): Yes
- Kd (PNA (15 mer -PNA)): > 50 nM
- Binding (Peptide (C4)): yes
- Binding (siRNA): yes
- Kd (siRNA): > 200 nM
- Binding ([2]; cargo AZT): No
- Binding ([2]; cargo Doxorubicin): yes
- Binding ([2]; cargo FAM-guanosine): yes
- Kd ([2]; cargo FAM-guanosine): 800 nM
- Binding ([2]; cargo porphyrin): yes
- Kd ([2]; cargo porphyrin): 110 nM
- Efficiency (uptake of Cy-5 labelled small peptide) (CEM-SS [3]): 87%
- Efficiency (uptake of Cy-5 labelled small peptide) (HS-68 [4]): 67%
- Efficiency (uptake of Cy-5 labelled small peptide) (Hela [5]): 60%
- Efficiency (uptake of Cy-5 labelled small peptide) (HepG2 [6]): 48%
- Efficiency (uptake of Cy-5 labelled small peptide) (Jurkat [7]): 65%
- Efficiency (uptake of Cy-5 labelled small peptide) (MCF7 [8]): 89%
- Efficiency (uptake of Cy-5 labelled small peptide) (MT4 [9]): 56%
- Efficiency (uptake of Cy-5 labelled small peptide) (U2OS [10]): 57%
- Efficiency (uptake of Cy-5 labelled small peptide) (C2C12 [11]): 57%
- Efficiency (uptake of Cy-5 labelled small peptide) (MEF [12]): 75%
- Efficiency (uptake of Cy-5 labelled small peptide) (STEM [13]): 76%
- Efficiency (uptake of Cy-5 labelled PNA) (CEM-SS [14]): 78%
- Efficiency (uptake of Cy-5 labelled PNA) (HS-68 [15]): 71%
- Efficiency (uptake of Cy-5 labelled PNA) (Hela [16]): 78%
- Efficiency (uptake of Cy-5 labelled PNA) (HepG2 [17]): 71%
- Efficiency (uptake of Cy-5 labelled PNA) (Jurkat [18]): 81%
- Efficiency (uptake of Cy-5 labelled PNA) (MCF7 [19]): 83%
- Efficiency (uptake of Cy-5 labelled PNA) (MT4 [20]): 67%
- Efficiency (uptake of Cy-5 labelled PNA) (U2OS [21]): 89%
- Efficiency (uptake of Cy-5 labelled PNA) (C2C12 [22]): 69%
- Efficiency (uptake of Cy-5 labelled PNA) (MEF [23]): 74%
- Efficiency (uptake of Cy-5 labelled PNA) (STEM [24]): 88%
- effect on cell cycle progression (cultured cells): no effect
